Laboratory results as given in patent US9532970B2, “Compositions for anti-inflammatory, antioxidant effects and improved respiratory function by specific histone deacetylase inhibition” (priority 2014, dated 2017).
Where two headings read alike, the source gives them in different places.

What was measured:
HDAC-3 = HDAC-3 (Homo sapiens, UniProt O15379); experiment: biochemical
HDAC8 = HDAC8 (Homo sapiens, UniProt Q9BY41); experiment: biochemical
Chain of HDAC8 (Q9BY41 whole entry, species assumed): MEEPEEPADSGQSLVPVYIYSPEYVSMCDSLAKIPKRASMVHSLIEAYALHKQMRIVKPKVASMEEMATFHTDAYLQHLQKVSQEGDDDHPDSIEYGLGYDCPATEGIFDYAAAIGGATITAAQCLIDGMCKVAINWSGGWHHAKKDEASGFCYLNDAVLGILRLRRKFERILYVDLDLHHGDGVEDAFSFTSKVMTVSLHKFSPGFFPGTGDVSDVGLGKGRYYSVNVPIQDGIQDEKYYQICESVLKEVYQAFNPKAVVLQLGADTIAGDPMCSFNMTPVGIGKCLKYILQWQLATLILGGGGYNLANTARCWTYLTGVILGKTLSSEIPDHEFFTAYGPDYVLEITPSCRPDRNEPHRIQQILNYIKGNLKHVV

Chain of HDAC-3 (O15379 whole entry, species assumed): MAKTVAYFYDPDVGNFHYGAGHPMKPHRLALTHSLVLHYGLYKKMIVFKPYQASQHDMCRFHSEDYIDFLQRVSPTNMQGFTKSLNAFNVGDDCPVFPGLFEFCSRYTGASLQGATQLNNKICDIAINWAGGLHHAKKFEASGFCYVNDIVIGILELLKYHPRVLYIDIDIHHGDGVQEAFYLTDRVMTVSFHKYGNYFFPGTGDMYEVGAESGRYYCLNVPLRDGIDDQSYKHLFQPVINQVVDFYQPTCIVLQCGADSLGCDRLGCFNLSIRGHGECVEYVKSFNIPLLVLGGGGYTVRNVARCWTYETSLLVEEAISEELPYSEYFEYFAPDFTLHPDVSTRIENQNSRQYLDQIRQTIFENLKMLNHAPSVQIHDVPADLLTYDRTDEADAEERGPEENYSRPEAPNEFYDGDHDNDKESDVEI
Chain of HDAC-3 (Q9Y618 395-489 partner limits assumed, species assumed): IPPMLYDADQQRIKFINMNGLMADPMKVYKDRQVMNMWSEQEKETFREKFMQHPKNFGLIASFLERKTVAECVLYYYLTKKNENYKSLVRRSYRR

C[S@@+]([O-])CCCCN=C=S [LSF, (R)-1-Isothiocyanato-4-(methylsulfinyl)butane]
NES (Horse PBMC; MSigDB gene set FULCHER INFLAMMATORY RESPONSE LECTIN VS LPS DN): −5.59 | NES (Horse PBMC; MSigDB gene set GABRIELY MIR21 TARGETS): 3.8 | NES (Horse PBMC; MSigDB gene set GCM DFFA): 4.6 | NES (Horse PBMC; MSigDB gene set GCM MLL): 4.08 | NES (Horse PBMC; MSigDB gene set GCM MYST2): 4.99 | NES (Horse PBMC; MSigDB gene set GCM RAB10): 3.8 | NES (Horse PBMC; MSigDB gene set GCM SUFU): 4.3 | NES (Horse PBMC; MSigDB gene set GCM UBE2N): 4.65 | NES (Horse PBMC; MSigDB gene set GCM ZNF198): 4.95 | NES (Horse PBMC; MSigDB gene set GSE10239 NAIVE VS MEMORY CD8 TCELL UP): 4.2 | NES (Horse PBMC; MSigDB gene set GSE10325 CD4 TCELL VS MYELOID DN): −6.35 | NES (Horse PBMC; MSigDB gene set GSE10325 LUPUS BCELL VS LUPUS MYELOID DN): −6.47 | NES (Horse PBMC; MSigDB gene set GSE10325 LUPUS CD4 TCELL VS LUPUS MYELOID DN): −7.15 | NES (Horse PBMC; MSigDB gene set GSE11057 CD4 EFF MEM VS PBMC DN): −5.63 | NES (Horse PBMC; MSigDB gene set GSE13485 CTRL VS DAY3 YF17D VACCINE PBMC DN): −5.66 | NES (Horse PBMC; MSigDB gene set GSE13485 CTRL VS DAY7 YF17D VACCINE PBMC DN): −6.96 | NES (Horse PBMC; MSigDB gene set GSE13485 DAY3 VS DAY7 YF17D VACCINE PBMC DN): −5.63 | NES (Horse PBMC; MSigDB gene set GSE13485 DAY7 VS DAY21 YF17D VACCINE PBMC UP): −5.61 | NES (Horse PBMC; MSigDB gene set GSE22866 NAIVE CD4 TCELL VS MONOCYTE DN): −5.6 | NES (Horse PBMC; MSigDB gene set GSE24634 IL4 VS CTRL TREATED NAIVE CD4 TCELL DAY5 UP): −5.8 | NES (Horse PBMC; MSigDB gene set GSE24634 TREG VS TCONV POST DAY10 IL4 CONVERSION DN): −5.97 | NES (Horse PBMC; MSigDB gene set GSE29617 CTRL VS DAY3 TIV FLU VACCINE PBMC 2008 UP): 4.12 | NES (Horse PBMC; MSigDB gene set GSE29618 BCELL VS MDC DAY7 FLU VACCINE DN): −5.93 | NES (Horse PBMC; MSigDB gene set HAMAI APOPTOSIS VIA TRAIL UP): 5.42 | NES (Horse PBMC; MSigDB gene set MCLACHLAN DENTAL CARIES UP): −5.67 | NES (Horse PBMC; MSigDB gene set MEISSNER BRAIN HCP WITH H3K4ME3 AND H3K27ME3): −5.6 | NES (Horse PBMC; MSigDB gene set MILI PSEUDOPODIA HAPTOTAXIS UP): 4.81 | NES (Horse PBMC; MSigDB gene set MODULE 45): −5.9 | NES (Horse PBMC; MSigDB gene set MODULE 46): −6.22 | NES (Horse PBMC; MSigDB gene set MODULE 75): −5.9 | NES (Horse PBMC; MSigDB gene set MODULE 84): −7.87 | NES (Horse PBMC; MSigDB gene set MRNA METABOLIC PROCESS): 4.19 | NES (Horse PBMC; MSigDB gene set REACTOME GENERIC TRANSCRIPTION PATHWAY): 4.19 | NES (Horse PBMC; MSigDB gene set RNA PROCESSING): 4.02 | NES (Horse PBMC; MSigDB gene set SHEN SMARCA2 TARGETS UP): 5.39 | NES (Horse PBMC; MSigDB gene set V$NFMUE1 Q6): 3.98 | NES (Horse PBMC; MSigDB gene set WALLACE PROSTATE CANCER RACE UP): −5.66 | NES (Horse PBMC; Reactome gene set ACTIVATION OF KAINATE RECEPTORS UPON GLUTAMATE BINDING): −2.56 | NES (Horse PBMC; Reactome gene set ANTIGEN PROCESSING UBIQUITINATION PROTEASOME DEGRADATION): 2.7 | NES (Horse PBMC; Reactome gene set ASSOCIATION OF TRIC CCT WITH TARGET PROTEINS DURING BIOSYNTHESIS): 2.62 | NES (Horse PBMC; Reactome gene set CLASS A1 RHODOPSIN LIKE RECEPTORS): −2.68 | NES (Horse PBMC; Reactome gene set CLEAVAGE OF GROWING TRANSCRIPT IN THE TERMINATION REGION): 3.33 | NES (Horse PBMC; Reactome gene set CYTOKINE SIGNALLING IN IMMUNE SYSTEM): −2.84 | NES (Horse PBMC; Reactome gene set DOWNSTREAM SIGNALING EVENTS OF B CELL RECEPTOR BCR): 3.12 | NES (Horse PBMC; Reactome gene set G ALPHA1213 SIGNALLING EVENTS): −2.54 | NES (Horse PBMC; Reactome gene set G ALPHA I SIGNALLING EVENTS): −2.41 | NES (Horse PBMC; Reactome gene set G ALPHA SIGNALLING EVENTS): −2.82 | NES (Horse PBMC; Reactome gene set GABA RECEPTOR ACTIVATION): −2.39 | NES (Horse PBMC; Reactome gene set GENERIC TRANSCRIPTION PATHWAY): 4.23 | NES (Horse PBMC; Reactome gene set GPCR DOWNSTREAM SIGNALING): −3.63 | NES (Horse PBMC; Reactome gene set GPCR LIGAND BINDING): −2.67 | NES (Horse PBMC; Reactome gene set HIV LIFE CYCLE): 2.41 | NES (Horse PBMC; Reactome gene set IMMUNOREGULATORY INTERACTIONS BETWEEN A LYMPHOID AND A NON LYMPHOID CELL): −3.37 | NES (Horse PBMC; Reactome gene set INTERFERON ALPHA BETA SIGNALING): −4 | NES (Horse PBMC; Reactome gene set INTERFERON GAMMA SIGNALING): −3.9 | NES (Horse PBMC; Reactome gene set INTERFERON SIGNALING): −3.18 | NES (Horse PBMC; Reactome gene set LATE PHASE OF HIV LIFE CYCLE): 2.44 | NES (Horse PBMC; Reactome gene set MHC CLASS II ANTIGEN PRESENTATION): −2.47 | NES (Horse PBMC; Reactome gene set MRNA 3 END PROCESSING): 3.5 | NES (Horse PBMC; Reactome gene set MRNA PROCESSING): 3.68 | NES (Horse PBMC; Reactome gene set MRNA SPLICING): 3.09 | NES (Horse PBMC; Reactome gene set OPIOID SIGNALLING): −2.55 | NES (Horse PBMC; Reactome gene set PEPTIDE CHAIN ELONGATION): −2.43 | NES (Horse PBMC; Reactome gene set PI3K EVENTS IN ERBB2 SIGNALING): 2.49 | NES (Horse PBMC; Reactome gene set PI3K EVENTS IN ERBB4 SIGNALING): 2.52 | NES (Horse PBMC; Reactome gene set PIP3 ACTIVATES AKT SIGNALING): 2.48 | NES (Horse PBMC; Reactome gene set PROCESSING OF CAPPED INTRON CONTAINING PRE MRNA): 3.61 | NES (Horse PBMC; Reactome gene set RECRUITMENT OF MITOTIC CENTROSOME PROTEINS AND COMPLEXES): 2.55 | NES (Horse PBMC; Reactome gene set REGULATION OF MRNA STABILITY BY PROTEINS THAT BIND AU RICH ELEMENTS): 2.6 | NES (Horse PBMC; Reactome gene set REGULATION OF ORNITHINE DECARBOXYLASE ODC): 2.45 | NES (Horse PBMC; Reactome gene set RESPIRATORY ELECTRON TRANSPORT ATP SYNTHESIS BY CHEMIOSMOTIC COUPLING AND HEAT PRODUCTION BY UNCOULPLING PROTEINS): −2.69 | NES (Horse PBMC; Reactome gene set RNA POL II TRANSCRIPTION): 3.32 | NES (Horse PBMC; Reactome gene set SIGNALING BY GPCR): −3.35 | NES (Horse PBMC; Reactome gene set SIGNALING BY RHO GTPASES): −2.87 | NES (Horse PBMC; Reactome gene set TCA CYCLE AND RESPIRATORY ELECTRON TRANSPORT): −2.8 | NES (Horse PBMC; Reactome gene set TRANSCRIPTION): 3.25 | NES (Horse PBMC; Reactome gene set TRANSPORT OF MATURE TRANSCRIPT TO CYTOPLASM): 3.02 | IC50 (HDAC-3): 20.5 mM | IC50 (HDAC8): 0.0827 mM
